Measurements from patent US20200068887A1, “TREATMENT FOR REMOVING ECTOPARASITES FROM FISH” (priority 2016, published 2020).

Key:
Assay type in all cases: in vivo
[1] = test system: L. salmonis; experiment: Field well boat treatment, pre- vs post-treatment sea lice counts; conditions: 20 ppm 60 min on well boat, within 24 hours after treatment, 30 fish per pen; pens A-D
Description: The effectiveness of imidacloprid against pre-adult and adult stages of L. salmonis and Caligus sp. infections on farmed Atlantic salmon was investigated by performing pre- and post-treatment sea lice counts on salmon undergoing a treatment with imidacloprid. This trial was conducted at a commercial salmon farm in Norway. The salmon were pumped onto a well boat and were exposed to 20 ppm imidacloprid for 60 minutes. The average weight of the salmon was 3.5 kg and the average number of salmon per pen was 180,000. 30 fish per pen were assessed for L. salmonis and Caligus sp., and the number of each L. salmonis life stage found was recorded. This was performed within 24 hours prior to treatment, and within 24 hours after treatment.
These assessments were made on four pens of salmon in total. Prior to treatment, fish were crowded within the pen to enable them to be pumped into the well boat, which is where the pre-treatment sea lice assessments were conducted. The post-treatment sea lice assessments were made by removing fish from the outflow pipe on the well boat.
At all time points, 3 fish were removed and placed into an anaesthetic bath. This was repeated 10 times until 30 fish had been assessed.
The numbers of sea lice observed per fish for this trial for each of the four tested pens according to sea lice life cycle state, pre- or post-administration of active are presented in Table 5.

[2] = test system: Lepeophtheirus salmonis; experiment: Sea lice recovery in clean seawater after exposure; conditions: any concentration (10-25 mg/l), post-exposure period up to 6 hours
Description: Imidacloprid exposed parasites from both the relative efficacy and rate determination studies (both those removed manually from their host post-treatment and those that detached during treatment) were immersed into clean seawater and observed for signs of recovery.
At the time of the first observation, exposed individuals were determined to be either dead or still active. Of those still active, muscular excitation was uncoordinated, uncontrolled and limited.

[3] = test system: pre-adult and adult sea lice; experiment: Timescale of effect of imidacloprid against sea lice on killed salmon hosts; conditions: for lice that left the host: around 12° C.
Description: To determine the timescale of the effect of imidacloprid, salmon infected with pre-adult and adult sea lice were removed from a stock tank and killed using a sharp blow to the head.
For fish exposed to 0 ppm imidacloprid (negative controls), observations were made for 60 minutes. […] Three fish per treatment group were tested.
Observations on the time at which lice left the host, and the sex and stage of the sea louse was noted. Any lice that left the host were transferred to clean sea water immediately. Furthermore, any lice remaining on the host at the end of the exposure period were removed from the host and transferred to clean sea water.
Lice were observed both shortly after and approximately 2 hours after the end of the exposure period.
The ratio of male to female sea lice was around 50:50. The water temperature was around 12° C.

## O=[N+]([O-])NC1=NCCN1Cc1ccc(Cl)nc1 [imidacloprid]
[1]
  sea lice per fish, Adult Female, Post: 0.0
  sea lice per fish, Adult Male, Post: 0.0
  sea lice per fish, Gravid Female, Post: 0.0
  sea lice per fish, Pre-Adult Female, Post: 0.0
  sea lice per fish, Pre-Adult Male, Post: 0.0
  sea lice per fish, Total, Post: 0.0
[2]
  functional recovery of exposed parasites in clean seawater: no clear signs of functional recovery
[3]; 20 mg/L, 30 minutes post-exposure, of 49 lice
  lice considered dead: two
[3]; 20 ppm, lice exposed for 30 minutes
  signs of recovery in clean sea water: No lice exposed for 30 minutes showed signs of recovery
[3]; 20 ppm, out of 49 lice
  lice deemed alive and responsive: Twelve
[3]; 50 ppm, 2 hours p.e., of 21 lice
  lice considered dead: 14 lice
[3]; 50 ppm, at 30 minutes, of 21 lice
  lice considered dead: four
[3]; 100 ppm, 2 hours p.e.
  lice considered dead: 17/28
[3]; 100 ppm, end of the exposure period, of 28 lice
  lice considered dead: four
[3]; 200 ppm, 2 hours post-exposure, of 26 lice
  lice considered dead: Six
[3]; 200 ppm, end of the exposure period, of 26 lice
  lice considered dead: four
[3]; 500 ppm, 30 minutes p.e., out of 20 lice
  lice considered dead: Six
[3]; 500 ppm, 2 hours p.e.
  lice considered dead: 15/20
[3]; 500 ppm, within the first 9 minutes
  lice that left the host: around 70%
[3]; between 20 and 200 ppm, within the first 15 minutes
  lice that left the host: around 50%
